What was measured:
Assay type in all cases: in vivo, rat
[1] = test system: sciatic nerve and surrounding tissues; assay: Histology (H&E) of sciatic nerve and surrounding tissues; conditions: 0.25%, 11 days after injection
Excerpt: The rats were anesthetized with isoflurane and sciatic nerves were harvested and fixed in 4% paraformaldehyde. Following tissue fixation and dehydration, sciatic nerves were embedded in Optimal cutting temperature compound (OCT compound) and 20-μm thin slices were cut on a cryostat, then stained using hematoxylin and eosin stain technique. Nerve structures were observed using a Nikon microscope (Nikon Eclipse 80i, Japan). Rats injected with PBS, PLGA, 0.25% FR (i.e., 0.25% Free ROPI), and 0.25% SRR (i.e., 0.25% PLGA-ROPI) were euthanized 11 days after injection (n=3 for each group), and the sciatic nerve and surrounding tissues were harvested, sectioned for histology, and stained with hematoxylin-eosin (H&E). SRR were not observed on gross dissection.

[2] = test system: incision-induced mechanical pain hypersensitivity; assay: Incisional pain model, mechanical allodynia (paw withdrawal threshold, von Frey) after peri-sciatic nerve injection; conditions: 0.25%, 0.2 mL peri-sciatic, P<0.05
Procedure: (§1) Male and female Sprague-Dawley rats weighing 200-250 g were obtained from Charles River Laboratories (Wilmington, MA). All rats were housed in an animal facility that was kept in a standard 12-h light/dark cycle, with standard laboratory water and food pellets available ad libitum. Animal experiments were conducted with the approval of the Animal Care and Use Committee at Rutgers-New Jersey Medical School and were consistent with the ethical guidelines of the US National Institutes of Health and the International Association for the Study of Pain. All efforts were made to minimize animal suffering and to reduce the number of animals used. To minimize intra- and inter-individual variability of behavioral outcome measures, animals were trained for 1-2 days before behavioral testing was performed. The experimenters were blinded to treatment condition during behavioral testing.
(§2) The incisional surgery was carried out with minor modification as described in T. J. Brennan, et al., Characterization of a rat model of incisional pain, Pain, 64 (1996) 493-501. Rats were anesthetized with 2% isoflurane delivered via a nose cone. The plantar aspect of the left hindpaw was prepared in a sterile manner with a 10% povidone-iodine solution. A 1-cm longitudinal incision was made with a number 11 blade, through skin and fascia of the plantar aspect of the foot, starting 0.5 cm from the proximal edge of the heel and extending toward the toes. The plantaris muscle was elevated and incised longitudinally. After hemostasis with gentle pressure, the skin was sutured with 5-0 nylon thread. The wound site was covered with a mixture of polymixin B, neomycin, and bacitracin ointment. After surgery, the animals were allowed to recover in their cages.
(§3) The rats received sciatic nerve block under inhalation anesthesia with isoflurane. Nerve block injections were performed with a 20-gauge needle under isoflurane-oxygen anesthesia as described in J. G. Thalhammer, et al., Neurologic evaluation of the rat during sciatic nerve block with lidocaine, Anesthesiology, 82 (1995) 1013-1025. […]

locomotor function = assay: Locomotor function test (placing, grasping, righting reflexes); conditions: 0.25%
Procedure: The rats were divided into different groups according to the different pain model performed (incisional pain model or SNI model), and were injected with 0.2 mL of a sustained-release ropivacaine hydrochloride PBS solution (SRR or alternatively, PLGA-ROPI) containing 0.25%, 0.125%, and 0.06% of PLGA-ROPI or PLGA-RVC·HCl, a PBS solution containing 0.25% free ropivacaine (FR or alternatively, Free-ROPI), and 2 control solutions of a neat PBS, and a neat PLGA, respectively. The % used here refers to the weight (gram %) of PLGA-ROPI or PLGA-RVC·HCl by the volume (mL) of the solution. For example, 0.25% refers to 0.25 g/100 mL. The animals were divided into 10 groups: incision+0.25% SRR, incision+0.125% SRR, incision+0.06% SRR, incision+0.25% FR, incision+PLGA, incision+PBS. SNI+0.25% SRR, SNI+0.125% SRR, SNI+0.06% SRR, SNI+PBS. Each group contained 8 rats. […] For the SNI model, mechanical and cold allodynia with 1 h intervals were used to examine rats 1 d before surgery and 7 d post-surgery, post peri-sciatic nerve injection on 7 d post-surgery, and the behavior test was resumed on d8, d10, d12, d14, d16, d19, and d22. Tests of locomotor function, including placing, grasping and righting reflexes, were performed before and after incision surgery according to the previously described protocol in Y. X. Tao, et al., Impaired neuropathic pain and preserved acute pain in rats overexpressing voltage-gated potassium channel subunit Kv1.2 in primary afferent neurons, Molecular Pain, 10 (2014) 8. (1) Placing reflex: The rat was held with hind limbs slightly lower than the forelimbs and the dorsal surfaces of the hind paws were brought into contact with the edge of a table. Whether the hind paws were placed on the table surface reflexively was recorded; (2) Grasping reflex: The rat was placed on a wire grid and whether the hind paws grasped the wire on contact was recorded; (3) Righting reflex: The rat's back was placed on a flat surface and whether it immediately assumed the normal upright position was recorded. […] In addition, the animal's general behaviors, including spontaneous activity (e.g. walking and running), were observed.

[3] = test system: sciatic nerve myelin sheath; assay: Transmission electron microscopy, ultrastructure of sciatic nerve; conditions: 0.25%; day 11 after injection; ipsilateral sciatic nerve; no significant difference among groups
Procedure: The rats were anesthetized with isoflurane and perfused with 300 mL of 2.5% gluteraldehyde in 0.1M sodium cacodylate buffer (pH 7.4). After perfusion, sciatic nerves were dissected, postfixed at 4° C. for 3 hours. After dehydrated by gradient ethanol elution, samples were cleared by propylene, then infiltrated with resin and embed in moulds. Transmission electronic microscopy images were acquired by a Hitachi H-7500 transmission electron microscope (Hitachi, Ltd. Japan). To observe the ultrastructure of sciatic nerve after injection, we harvested ipsilateral sciatic nerves on day 11 after injection of PBS. PLGA, 0.25% FR, and 0.25% SRR (n=3 for each group), then processed the tissue to be examined under TEM. […] Specific features of the degeneration of myelin sheath including thinner lamellae, loose lamellae, split myelin lamellae with discontinuities, or vacuole-like inclusions in the cytoplasm of Schwann cells were not observed in any of the nerve tissue.

[4] = test system: postsurgical pain (hindpaw plantar incision); assay: Incisional pain model, overall analgesic effect (mechanical and heat) after peri-sciatic nerve injection; conditions: 0.25%, 0.2 mL peri-sciatic
Procedure: as §1
The incisional surgery was carried out with minor modification as described in T. J. Brennan, et al., Characterization of a rat model of incisional pain, Pain, 64 (1996) 493-501. Rats were anesthetized with 2% isoflurane delivered via a nose cone. The plantar aspect of the left hindpaw was prepared in a sterile manner with a 10% povidone-iodine solution. […]

[5] = test system: incision-induced thermal pain hypersensitivity; assay: Incisional pain model, heat allodynia (paw withdrawal latency) after peri-sciatic nerve injection; conditions: 0.25%, P<0.05
Procedure: as §1, §2, §3

[6] = test system: myelin basic protein (MBP) of sciatic nerve; assay: Immunohistochemistry, MBP expression pattern of sciatic nerve; conditions: 0.25%, 11 days post injection
Procedure: Immunohistochemistry analysis were performed as described previously in Y. X. Tao, et al., Nerve injury-induced epigenetic silencing of opioid receptors controlled by DNMT3a in primary afferent neurons, Pain, 158 (2017) 1153-1165. The rats were anesthetized with isoflurane and perfused with 300 mL of 4% paraformaldehyde in 0.1 M phosphate-buffered saline (PBS) (pH 7.4). After perfusion, sciatic nerves were dissected, postfixed at 4° C. for 4 hours and cryoprotected in 30% sucrose overnight. The transverse and longitudinal sections were cut on a cryostat at a thickness of 20 μm. The sections were blocked for 1 hour at 25° C. in 0.01M PBS containing 5% goat serum and 0.3% Triton X-100. Sections were incubated overnight at 4° C. with mouse anti-myelin basic protein (MBP) (1:500; Biolegend, San Diego, CA). The sections were then incubated with a mixture of goat anti-mouse antibody conjugated to Cy2 (1:500; Jackson ImmunoResearch, West Grove, PA) for 2 hours at room temperature. Immunofluorescence-labeled images were generated using a Leica DMI4000 fluorescence microscope with a DFC365FX camera (Leica, Germany).
To examine whether injection of SRR injured the nerve fiber, we investigated the MBP expression pattern of sciatic nerve on 11 days post injection of PBS, PLGA, 0.25% FR, and 0.25% SRR (n=3 for each group).

[7] = 2 h, normal reflexes in five trials

inflammation on microscopic examination (H&E) [1]: no significant inflammation
Grasping reflex score (locomotor function; [7]): 4.38(0.63)
Placing reflex score (locomotor function; [7]): 5(0)
Righting reflex score (locomotor function; [7]): 5(0)
Grasping reflex score (locomotor function; 12 h): 5(0)
Placing reflex score (locomotor function; 12 h): 5(0)
Righting reflex score (locomotor function; 12 h): 5(0)
Grasping reflex score (locomotor function; 1 d): 5(0)
Placing reflex score (locomotor function; 1 d): 5(0)
Righting reflex score (locomotor function; 1 d): 5(0)
locomotor function (locomotor function; first 2 h after surgery, statistics showed no significant difference): slightly altered
MBP expression pattern / myelin morphology [6]: no abnormality was observed
Compound: CCCN1CCCC[C@H]1C(=O)Nc1c(C)cccc1C [FR, ropivacaine]
increase of paw withdrawal threshold to mechanical stimulation vs incision+PBS ([2]; 2 h after surgery): 76%
increase of paw withdrawal threshold to mechanical stimulation vs incision+PBS ([2]; 4 h after surgery): 59%
increase of paw withdrawal threshold to mechanical stimulation vs incision+PBS ([2]; 12 h after surgery): 71%
myelin sheath ultrastructure (TEM) [3]: intact and tightly laminated without any discontinuities
period of analgesic effect [4]: ≤ 24 h post injection
increase of paw withdrawal latency to heat stimulation vs incision+PBS ([5]; 0.2 mL peri-sciatic, 2 h after surgery): 29%
increase of paw withdrawal latency to heat stimulation vs incision+PBS ([5]; 4 h after surgery): 33%
increase of paw withdrawal latency to heat stimulation vs incision+PBS ([5]; 12 h after surgery): 18%
